We go through four molecules from patent US11273172B2, “Synergistic combination of oligonucleotides and chemotherapeutic for treating cancer” (THE BOARD OF TRUSTEES OF THE UNIVERSITY OF ILLINOIS, priority 2017, dated 2022).

Values joined by “and” are separate entries in the source; they are usually repeats but may differ in a detail not shown here. Equal entries are not always repeated.

Holding throughout (assay): MTT cell death assay, chemotherapeutic with and without MADD siRNA knockdown
Holding throughout (type): cell-based
On the technique in general: Tetrazolium dyes change colour on reduction, which living cells bring about.

The subject of series [1] is HTH7 thyroid cancer cells. The note with it: siRNA 10 nM. On the procedure: Cells are cultured and maintained at 37° C. in a humidified atmosphere containing 5% CO2 as described above. […] After 12-18 hours (Day 1), cells are transfected with Scramble or MADD siRNA at 10 nM concentration. The sequences of siRNAs (double stranded) used are:
(§1) On Day 4, when cells are properly adhered and retained their shape in 96-well plates, drugs are added. All drugs are diluted in complete media on the same day prior to the addition to the cells. In untreated cells, media is replaced with complete media. Two hundred μl volume of media (with or without drugs) is used for the drug treatment assay. Plates are incubated 24 hours, 48 hours and 72 hours at 37° C. in humidified CO2 incubator.
An MTT assay is performed to determine relative survival after drug treatment as described above. MTT (3-[4,5-Dimethylthiazol-2-yl]-2,5-diphenyltetrazolium bromide; Thiazolyl blue) is purchased from Sigma Aldrich (Cat number: M5655). […] Ten μl of MTT solution is added per well of 96-well plate. Plates are incubated for 2 hours at 37° C. in the humidified CO2 incubator. After 2 hours, media is aspirated using vacuum inside the biosafety hood. Purple colored crystals formed in viable cells are dissolved by adding 100 μl of Dimethyl sulfoxide (Thermo Fisher Scientific; Cat number D128-500) Plates are kept on shaker for 10 minutes for compete dissolution of crystals and absorbance is recorded at 595 nm using Bio-Rad iMark microplate reader. Data is analyzed in MICROSOFT EXCEL® software. Relative survival is calculated with respect to absorbance of control (untreated cells) to determine the effect of transfection as well as combination treatment.
(§2) Each data set takes into account any spontaneous cell death which is observed upon transfection with Scramble siRNA; the amount of spontaneous cell death from Scramble siRNA transfection (baseline) is subtracted from the amount of cell death observed in each siRNA transfection reaction to yield a Net Percent (Net %) cell death after accounting for Scrambled siRNA-induced cell death.

Series [2] concerns HCT116 colon cancer cells. Particulars: TRAIL 50 ng/ml, siRNA 10 nM, 48 hours post TRAIL treatment. Here is the method: (§3) Cells are cultured and maintained at 37° C. in a humidified atmosphere containing 5% CO2 as described above. On Day 0, Cells are seeded in […] tissue culture dishes (Corning; Cat Number: 353003) to attain 60-70% confluence. In parallel, cells are also seeded in one 96-well plate (Corning; Cat number: 353072) for analysis of survival before reseeding. After 12-18 hours (Day 1), cells are transfected with Scramble or MADD siRNA at 10 nM concentration. The sequences of siRNAs (double stranded) used are:
(§4) On Day 4, when cells are properly adhered and retained their shape in 96-well plates, drugs are added. All drugs are diluted in complete media on the same day prior to the addition to the cells. In untreated cells, media is replaced with complete media. Two hundred μl volume of media (with or without drugs) is used for the drug treatment assay. Plates are incubated 24 h, 48 h and 72 hours at 37° C. in humidified CO2 incubator.
(§5) An MTT assay is performed to determine relative survival after drug treatment as described above. MTT (3-[4,5-Dimethylthiazol-2-yl]-2,5-diphenyltetrazolium bromide; Thiazolyl blue) is purchased from Sigma Aldrich (Cat number: M5655). MTT is dissolved in sterile DPBS at the concentration of 5 mg/ml and filtered through […] syringe filter (Corning; Cat number: 431220). Ten μl of MTT solution is added per well of 96-well plate. Plates are incubated for 2 hours at 37° C. in the humidified CO2 incubator. After 2 hours, media is aspirated using vacuum inside the biosafety hood. Purple colored crystals formed in viable cells are dissolved by adding 100 μl of Dimethyl sulfoxide (Thermo Fisher Scientific; Cat number D128-500) Plates are kept on shaker for 10 minutes for compete dissolution of crystals and absorbance is recorded at 595 nm using Bio-Rad iMark microplate reader. Data is analyzed in MICROSOFT EXCEL® software. Relative survival is calculated with respect to absorbance of control (untreated cells) to determine the effect of transfection as well as combination treatment.
as §2

Series [3] deals with CFPAC-1 pancreatic cancer cells. Particulars: siRNA 10 nM, 72 hours post TRAIL treatment. On the procedure:
as §3, §4, §5, §2

Series [4] deals with SKOV3 ovarian cancer cells. Particulars: TRAIL 50 ng/ml, siRNA 10 nM, 48 hours post TRAIL treatment. On the procedure:
as §3, §4, §5, §2

The subject of series [5] is OVCAR3 ovarian cancer cells. The note with it: siRNA 10 nM. On the procedure:
(§6) Cells are cultured and maintained at 37° C. in a humidified atmosphere containing 5% CO2 as described above. On Day 0, Cells are seeded in […] tissue culture dishes (Corning; Cat Number: 353003) to attain 60-70% confluence. In parallel, cells are also seeded in one 96-well plate (Corning; Cat number: 353072) for analysis of survival before reseeding. After 12-18 hours (Day 1), cells are transfected with Scramble or MADD siRNA at 10 nM concentration. The sequences of siRNAs (double-stranded) used are:
as §1, §5, §2, §3
as §5, with “D128-500).” for “D128-500)”, “Relative survival is calculated with respect to absorbance of control (untreated cells) to determine the effect of transfection as well as combination treatment.” left out

The test system of the next series is H522 lung cancer cells. The note with it: siRNA 10 nM. Here is the method: as §6, §1, §5, §2, §3
as §5, with “D128-500).” for “D128-500)”, “Relative survival is calculated with respect to absorbance of control (untreated cells) to determine the effect of transfection as well as combination treatment.” left out

Where [6] appears, read: Cisplatin 1.25 μM, 72 hours post Cisplatin treatment.
Setting [7] is: Cisplatin 5 μM, 24 hours post Cisplatin treatment.
The mark [8] stands for this setting: Gemcitabine 0.0125 μM, 72 hours post Gemcitabine treatment.
[9] abbreviates: Gemcitabine 0.1 μM, 48 hours post Gemcitabine treatment.
The mark [10] stands for this setting: Sorafinib 5 μM, 48 hours post Sorafinib treatment.
Setting [11] is: Gemcitabine 8.2 nM, 48 hours post Gemcitabine treatment.
[12] abbreviates: Sorafinib 1.56 μM, 48 hours post Sorafinib treatment.
The mark [13] stands for this setting: TRAIL 100 ng/ml, 48 hours post TRAIL treatment.

In the case of “MADD siRNA: siRNA targeting exon 13L of the MADD splice variant of the IG20 gene; SEQ ID NO: 4, 5′-GAUUGUCAUAGAUUCGCCGTT-3′ (chemistry not given here)”, the “Net % cell death after accounting for Scrambled siRNA” value (from here on “Net % cell death after accounting”) is 54% and 54 − 0 = 54% in series [1] (setting [6]); 6% and 6 − 0 = 6% in series [1] (setting [7]); 53% and 53 − 0 = 53% in series [3] (TRAIL 6.25 ng/ml); 53% and 53 − 0 = 53% in series [3] (TRAIL 12.5 ng/ml); 29% and 38 − 9 = 29% in series [4]. Further, the “Observed % Cell death” value is 54% in series [1] (setting [6]); 6% in series [1] (setting [7]); 43% in series [2]; 53% in series [3] (TRAIL 6.25 ng/ml); 53% in series [3] (TRAIL 12.5 ng/ml); 38% in series [4]. The “Observed % Cell death” value was determined as 23% in series [5] (setting [8]); 19% in series [5] (setting [9]); 19% in series [5] (setting [10]); 37% with H522 lung cancer cells (setting [11]); 37% in the series on H522 lung cancer cells (setting [12]); 37% in the series with H522 lung cancer cells (setting [13]).

Take `CNC(=O)c1cc(Oc2ccc(NC(=O)Nc3ccc(Cl)c(C(F)(F)F)c3)cc2)ccn1` [Sorafinib]: in series [5] (setting [10]), the “Net % cell death after accounting” value was found to be 17% and the “Observed % Cell death” value was 17%. In addition, in the series on H522 lung cancer cells (setting [12]), the “Net % cell death after accounting” value is 0% and the “Observed % Cell death” value is 0%.

“Scrambled siRNA: non-specific Scramble siRNA, negative control; SEQ ID NO: 5, 5′-UUGCUAAGCGUCGGUCAAUTT-3′ (chemistry not given here)”: the “Net % cell death after accounting” value in series [1] (setting [6]) is 0 − 0 = 0%; in series [1] (setting [7]), 0 − 0 = 0%; in series [2] it was 27 − 27 = 0%; in series [3] (TRAIL 6.25 ng/ml) it was 17 − 17 = 0%; in series [3] (TRAIL 12.5 ng/ml), 0 − 0 = 0%; in series [4], 9 − 9 = 0%. The “Net % cell death after accounting” value is on record as 26 − 26 = 0% in series [5] (setting [8]); 17 − 17 = 0% in series [5] (setting [9]); 17 − 17 = 0% in series [5] (setting [10]); 30 − 30 = 0% in the series with H522 lung cancer cells (setting [11]); 30 − 30 = 0% in the series on H522 lung cancer cells (setting [12]); 30 − 30 = 0% in the series on H522 lung cancer cells (setting [13]). In addition, the “Observed % Cell death” value in series [1] (setting [6]) was 0%; in series [1] (setting [7]) it was 0%; in series [2] it was 27%; in series [3] (TRAIL 6.25 ng/ml) it was 0%; in series [3] (TRAIL 12.5 ng/ml), 0%; in series [4] it was 9%. Further, the “Observed % Cell death” value in series [5] (setting [8]) is 26%; in series [5] (setting [9]), 17%; in series [5] (setting [10]), 17%; in the series on H522 lung cancer cells (setting [11]), 30%; with H522 lung cancer cells (setting [12]), 30%; with H522 lung cancer cells (setting [13]), 30%.

B1: TRAIL: cytotoxic protein which induces apoptosis in tumor cells, but not in normal cells (protein, UniProt P50591 1-281, looked up)
Tumor necrosis factor ligand …: MAMMEVQGGPSLGQTCVLIVIFTVLLQSLCVAVTYVYFTNELKQMQDKYSKSGIACFLKEDDSYWDPNDEESMNSPCWQVKWQLRQLVRKMILRTSEETISTVQEKQQNISPLVRERGPQRVAAHITGTRGRSNTLSSPNSKNEKALGRKINSWESSRSGHSFLSNLHLRNGELVIHEKGFYYIYSQTYFRFQEEIKENTKNDKQMVQYIYKYTSYPDPILLMKSARNSCWSKDAEYGLYSIYQGGIFELKENDRIFVSVTNEHLIDMDHEASFFGAFLVG
For the molecule B1, the “Net % cell death after accounting” value is on record as 27% in series [2]; 30% in series [3] (TRAIL 6.25 ng/ml); 8% in series [3] (TRAIL 12.5 ng/ml); 13% in series [4]; 0% in the series on H522 lung cancer cells (setting [13]). In addition, the “Observed % Cell death” value in series [2] worked out at 27%; in series [3] (TRAIL 6.25 ng/ml), 30%; in series [3] (TRAIL 12.5 ng/ml), 8%; in series [4], 13%; with H522 lung cancer cells (setting [13]) it was 0%.
